Results on two compounds are retold here after patent US11312705B2, “Heteroaryl[4,3-C]pyrimidine-5-amine derivative, preparation method therefor, and medical uses thereof” (Jiangsu Hengrui Medicine Co., Ltd., priority 2017, dated 2022).

Data set [1] in a line: Brain permeability in mice (plasma/brain concentration plus equilibrium dialysis). Format: in vivo. To be noted: mouse, not told, po; female C57 mice, 20 mg/kg intragastric, 0.5 h after administration; read-out: Blood-brain permeability index (Kp-unbound). The procedure:
The brain permeability of the compounds of the present invention in mice was determined by the following experimental method:
Four female C57 mice were maintained on a 12 hours light/12 hours dark cycle, in a constant temperature of 24±3° C. and a humidity of 50-60%, and had free access to food and water. The compounds were administered intragastrically to the mice after fasting overnight. The administration dosage was 20 mg/kg. The drug administration group was sacrificed after blood collection at 0.5 h after drug administration (collected blood volume: 0.5 ml). The blood sample was stored in heparinized tubes, and centrifuged for 10 minutes at 3500 rpm to separate the plasma, which was marked as plasma 1 and stored at −80° C. […]
The equilibrium dialysis tube of RED Device Inserts was inserted into a 96-well plate. […] The chromatographic peak area ratios of the total drug (plasma chamber) and the free drug (buffer chamber) to the internal standard were determined directly by the LC/MS/MS method established above respectively, and the free percent (fuplasma%) was calculated. […]
5.1 The drug concentrations in plasma 1 and brain tissue 1 of mice 0.5 h after drug administration were determined by the established LC/MS/MS method respectively, which were the total concentration (Ctotal, p and Ctotal, b); […]
On the technique in general: Equilibrium dialysis compares concentrations on both sides of a semipermeable membrane.

Data set [2] deals with adenosine A1 receptor (A1R) (Homo sapiens (Human), UniProt P30542). As to the kind of experiment: Inhibition of adenosine A1 receptor cAMP signaling pathway (HTRF cAMP, CHO-K1/A1R cells). To be noted: Table 2; for IC50: CHO-K1/A1R cells, forskolin 10 μM, CPA 10 nM, cAMP HTRF; for IC50 ratio (A1R/A2aR): selectivity A1R over A2aR. It is filed as cell-based. The procedure, abridged: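 CHO-K1/A1R cells (5×10^5 cells/ml) preincubated 30 min at room temperature with compound (100000–0.1 nM final) in HEPES/BSA buffer with rolipram and adenosine deaminase. They were then stimulated 30 min with 10 μM forskolin plus 10 nM CPA, and intracellular cAMP was measured by HTRF.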
(In general: TR-FRET usually uses a lanthanide donor and a delayed reading to cut background.)

SMILES strings stand for the structures.

Chain of adenosine A1 receptor (A1R) (P30542 whole entry): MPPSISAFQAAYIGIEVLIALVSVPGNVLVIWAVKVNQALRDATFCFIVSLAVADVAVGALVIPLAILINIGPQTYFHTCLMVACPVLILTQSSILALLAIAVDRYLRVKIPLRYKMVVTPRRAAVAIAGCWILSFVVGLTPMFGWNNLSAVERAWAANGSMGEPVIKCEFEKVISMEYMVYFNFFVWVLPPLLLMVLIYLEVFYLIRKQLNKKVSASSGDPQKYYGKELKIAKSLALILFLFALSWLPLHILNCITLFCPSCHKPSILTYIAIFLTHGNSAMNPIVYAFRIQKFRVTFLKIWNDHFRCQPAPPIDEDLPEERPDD

In the case of `Cc1cc(-c2c(-c3ccc(F)cc3F)nc(N)n3cnnc23)cc(C(F)(F)F)n1` [Example 18, 7-(2,4-Difluorophenyl)-8-(2-methyl-6-(trifluoromethyl)pyridin-4-yl)-[1,2,4]triazolo[4,3-c]pyrimidin-5-amine], the Kp at 0.5 h in data set [1] was 0.01. Moreover, in data set [2], half-maximal inhibition (IC50) was put at 409 nM and the “IC50 ratio (A1R/A2aR)” value is 103.
The corresponding values for `Cc1cc(-c2c(-c3ccc(F)cc3F)nc(N)n3cnnc23)cc(C(F)F)n1` [Example 20, 8-(2-(Difluoromethyl)-6-methylpyridin-4-yl)-7-(2,4-difluorophenyl)-[1,2,4]triazolo[4,3-c]pyrimidin-5-amine] are 0.015, 519 nM and 223.

As a reminder, the Kp is tissue or fluid exposure divided by exposure in the circulation. Broadly, the IC50 is the point on the concentration scale where inhibition reaches its midpoint. Read a low IC50 as higher potency.
